Measured values as given in publication PMC8973347, “Discovery of novel sulphonamide hybrids that inhibit LSD1 against bladder cancer cells” (Journal of Enzyme Inhibition and Medicinal Chemistry, 2022).
Entries after “also recorded” stand apart in the source; their conditions may differ.

Experiments:
LSD1 [1] = biological target: T1, LSD1 (Homo sapiens, UniProt O60341); assay: LSD1 dilution assay; type: biochemical; parameters: purchased Cayman Chemical; details: diluted 80 times; Figure 3(C)
Method: LSD1 recombinant (Cayman Chemical, […], MI) was incubated with the targeted compound or dimethyl sulphoxide for 60 min. Then, samples were diluted 80 times using a HRP-assay solution containing substrate and coupling reagents. Finally, LSD1 inhibitory activity before and after dilution was examined.

HT1376&shControl cells = assay: Antiproliferative activity, control cells HT1376&shControl; details: read-out: IC50 against HT1376&shControl cells
Method: (§1) Cells were cultured at a 96-well plate for 24 h (Cayman Chemical, Fort Annapolis, MI) and different compounds were added. […] The solution was removed and dimethyl sulphoxide was added. Thirty minutes later, absorption values were read by a Fully Automated Microplate ELISA Analyser (DeTie, NanJing, China).

[2] = test system: HTB1 cells (bladder cancer cell line); assay: MTT cell viability assay, HTB1; details: read-out: IC50 against HTB1 cells; 48 h
Method: as §1

[3] = test system: H3K4me1, H3K4me2, and H3K9me2 in HT1376 cells; assay: Western blotting of LSD1 substrates; type: cell-based; details: Figure 4(D)
Method: Cells were seeded in four-well plates (Shanghai Yuanye Biotechnology Co., Ltd, Shanghai, China) and exposed to different compounds at different concentrations. Cells were harvested to obtain protein solution by the RIPA Lysis Buffer (DeTie, NanJing, China). The proteins were separated on sodium dodecyl sulphate–polyacrylamide gel electrophoresis (SDS-PAGE) gels and then transferred to poly(vinylidene fluoride (PVDF) membranes (Shanghai Yuanye Biotechnology Co., Ltd, Shanghai, China). It incubated with the primary antibodies and corresponding HRP conjugated secondary antibodies (Servicebio, Wuhan, China). The […] kit (Servicebio, Wuhan, China) was used to visualise the bands.

[4] = test system: HPAEpiC (normal human alveolar epithelial cell line); assay: MTT cell viability assay, HPAEpiC; details: read-out: IC50 against HPAEpiC normal cell line, 48 h
Method: as §1

[5] = test system: HTB3 (human bladder cell line); assay: MTT cell viability assay, HTB3; details: read-out: IC50 against HTB3 cells, 48 h
Method: as §1

[6] = test system: Jurkat (human leukaemia cell line); assay: MTT cell viability assay, Jurkat; details: read-out: IC50 against Jurkat cells, 48 h
Method: as §1

[7] = test system: Bel7402 (human liver cell line); assay: MTT cell viability assay, Bel7402; details: read-out: IC50 against Bel7402 cells, 48 h
Method: as §1

[8] = test system: LX-2 (normal human hepatic stellate cell line); assay: MTT cell viability assay, LX-2; details: read-out: IC50 against LX-2 normal cell line, 48 h
Method: as §1

MAO-A = biological target: T2, MAO-A (Homo sapiens, UniProt P21397); assay: MAO-A/B biochemical kit, MAO-A
T2 construct: purchased Promega
T2 sequence (P21397 1-527): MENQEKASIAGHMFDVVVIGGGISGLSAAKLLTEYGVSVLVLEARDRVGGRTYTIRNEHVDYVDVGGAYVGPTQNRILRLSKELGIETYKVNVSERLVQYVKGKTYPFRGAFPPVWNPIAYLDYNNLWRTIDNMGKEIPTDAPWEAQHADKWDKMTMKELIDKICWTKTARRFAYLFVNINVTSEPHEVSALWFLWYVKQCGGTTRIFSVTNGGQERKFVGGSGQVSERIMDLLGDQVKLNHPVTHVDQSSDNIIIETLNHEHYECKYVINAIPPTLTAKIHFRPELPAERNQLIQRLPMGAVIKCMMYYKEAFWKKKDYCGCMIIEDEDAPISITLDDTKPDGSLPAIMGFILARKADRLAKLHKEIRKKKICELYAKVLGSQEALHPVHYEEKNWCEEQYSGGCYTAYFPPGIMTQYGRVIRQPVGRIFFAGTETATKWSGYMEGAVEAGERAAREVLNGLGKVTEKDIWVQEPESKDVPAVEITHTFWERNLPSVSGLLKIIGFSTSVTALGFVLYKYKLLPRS
Excerpt: (§2) LSD1 inhibitor screening assay kit was purchased to evaluate for the enzyme inhibition activity of all synthetic compounds (Cayman Chemical, Fort Annapolis, MI). The MAO-A/B biochemical kit was purchased to explore the inhibitory activity against MAO-A and MAO-B (Promega, Madison, WI). […] The signal of each well was read by a GloMax Explorer (Beijing Yuanpinghao Biotechnology Co., Ltd, Beijing, China).

[9] = test system: H1299 (human lung cell line); assay: MTT cell viability assay, H1299; details: read-out: IC50 against H1299 cells, 48 h
Method: as §1

[10] = test system: SGC-7901 (human gastric cell line); assay: MTT cell viability assay, SGC-7901; details: read-out: IC50 against SGC-7901 cells, 48 h
Method: as §1

HTB3&shControl cells = assay: Antiproliferative activity, control cells HTB3&shControl; details: read-out: IC50 against HTB3&shControl cells
Method: as §1

HTB3&shLSD1 cells = assay: Antiproliferative activity, LSD1 knock-down cells HTB3&shLSD1; details: read-out: IC50 against HTB3&shLSD1 cells
Method: as §1

HT1376&shLSD1 cells = assay: Antiproliferative activity, LSD1 knock-down cells HT1376&shLSD1; details: read-out: IC50 against HT1376&shLSD1 cells
Method: as §1

[11] = test system: HCT-15 (human colon cell line); assay: MTT cell viability assay, HCT-15; details: read-out: IC50 against HCT-15 cells, 48 h
Method: as §1

LSD1 [12] = biological target: T1, LSD1; assay: LSD1 inhibitor screening assay kit
Excerpt: as §2

[13] = test system: HIEC (normal human intestinal epithelial cell line); assay: MTT cell viability assay, HIEC; details: read-out: IC50 against HIEC normal cell line, 48 h
Method: as §1

[14] = test system: HT1376 cells (bladder cancer cell line); assay: MTT cell viability assay, HT1376; details: read-out: IC50 against HT1376 cells; 48 h
Method: as §1

[15] = test system: HTB5 cells (bladder cancer cell line); assay: MTT cell viability assay, HTB5; details: read-out: IC50 against HTB5 cells; 48 h
Method: as §1

MAO-B = biological target: T3, MAO-B (Homo sapiens, UniProt P27338); assay: MAO-A/B biochemical kit, MAO-B
T3 construct: purchased Promega
T3 sequence (P27338 1-520): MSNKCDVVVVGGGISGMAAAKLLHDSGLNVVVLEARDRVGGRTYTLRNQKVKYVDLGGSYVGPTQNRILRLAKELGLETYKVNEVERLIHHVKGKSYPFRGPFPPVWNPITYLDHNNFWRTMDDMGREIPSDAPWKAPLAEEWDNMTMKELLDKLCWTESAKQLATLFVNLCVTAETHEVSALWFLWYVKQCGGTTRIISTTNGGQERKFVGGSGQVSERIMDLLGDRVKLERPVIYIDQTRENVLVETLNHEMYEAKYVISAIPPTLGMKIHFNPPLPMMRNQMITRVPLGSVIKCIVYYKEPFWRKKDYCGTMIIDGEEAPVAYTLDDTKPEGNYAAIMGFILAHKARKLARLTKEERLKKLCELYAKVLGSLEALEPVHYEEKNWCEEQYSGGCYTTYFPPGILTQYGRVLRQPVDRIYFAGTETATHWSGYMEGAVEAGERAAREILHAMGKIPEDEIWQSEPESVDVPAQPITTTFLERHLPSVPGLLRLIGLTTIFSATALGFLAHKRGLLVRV
Excerpt: as §2

With `COc1cc(N(CCCCSC(=S)N2CCN(CCO)CC2)S(=O)(=O)c2cccc3cccnc23)cc(OC)c1OC` [Compound L8, 4-(N-(3,4,5-trimethoxyphenyl)quinoline-8-sulfonamido)butyl-4–(2-hydroxyethyl)piperazine-1-carbodithioate] the “reversibility of LSD1 inhibition” value (LSD1 [1]) was “reversible”, the IC50 (HT1376&shControl cells) was 0.11 µM and the IC50 [2] was 0.93 µM. The “expression levels of H3K4me1, H3K4me2, and H3K9me2” value [3] was “increasing; also recorded: increased”, the IC50 [4] was over 16 µM and the IC50 [5] was 0.18 µM. The IC50 [6] was 0.29 µM, the IC50 [7] was 0.96 µM and the IC50 [8] was over 16 µM. For the same compound, the IC50 (MAO-A) was over 120 µM, the “inhibitory rate MAO-A” value (MAO-A; at 100 nM) was 10.33% and the IC50 [9] was 0.31 µM. The IC50 [10] was 2.67 µM, the IC50 (HTB3&shControl cells) was 0.23 µM and the IC50 (HTB3&shLSD1 cells) was 3.07 µM. The IC50 (HT1376&shLSD1 cells) was 4.36 µM, the IC50 [11] was 2.17 µM and the “time dependence of LSD1 inhibition” value (LSD1 [12]; Figure 3(B)) was “time-dependent”. The “inhibition against LSD1” value (LSD1 [12]; at 25 nM) was “about 30.33%”, the “inhibition against LSD1” value (LSD1 [12]; at 50 nM) was about 46.00% and the “inhibition against LSD1” value (LSD1 [12]; at 100 nM) was about 68.00%. The IC50 (LSD1 [12]; read-out: IC50 (μM) LSD1) was 0.06 ± 0.01 µM, the IC50 [13] was over 16 µM and the IC50 [14] was 0.09 µM. For the same compound, the IC50 [15] was 1.87 µM, the IC50 (MAO-B) was over 120 µM and the “inhibitory rate MAO-B” value (MAO-B; at 100 nM) was 9.33%.
